# System: WM3248 melanoma cells, 486 antibodies
# Test: Reverse phase protein arrays (RPPA);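 on RPPA ACC1.R.C: ratio of treated to vehicle (0 µM) normalized linear protein signal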;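 on RPPA AMPK.a2 pS345.R.V: ratio of treated to vehicle (0 µM) normalized linear protein signal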;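 on RPPA AMPKa pT172.R.C: ratio of treated to vehicle (0 µM) normalized linear protein signal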;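 on RPPA ASNS.R.V: ratio of treated to vehicle (0 µM) normalized linear protein signal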;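 on RPPA AceCS1.R.V: ratio of treated to vehicle (0 µM) normalized linear protein signal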;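 on RPPA Akt1.R.V: ratio of treated to vehicle (0 µM) normalized linear protein signal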;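 on RPPA Atg5.R.C: ratio of treated to vehicle (0 µM) normalized linear protein signal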;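 on RPPA Bim.R.V: ratio of treated to vehicle (0 µM) normalized linear protein signal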
# Format: cell-based, Human
# Conditions: 20 uM
# Excerpt: Pellets were snap frozen in liquid nitrogen and shipped to MD Anderson Cancer Center core RPPA facility for RPPA analysis (Table S5). Three biological replicates for each sample were generated.
# Nomenclatures on the RPPA heatmaps: name_of_antibody.species_of_antibody.status_of_antibody. V - antibody validated; C - validation of antibody in progress; Q - antibody nonspecific; E – under evaluation; antibodies raised in M - mouse, G - goat, R - rabbit, or T - rat.
smiles,measurement,setting,value
"CN(C)c1cccc(Nc2cc(-c3ccccc3)nc(C3CCNCC3)n2)c1 [ARN22089, N1,N1-dimethyl-N3-(6-phenyl-2-(piperidin-4-yl)pyrimidin-4-yl)benzene-1,3-diamine]",RPPA p38.a.M.V Average,,0.905
same,RPPA p44.42.MAPK.R.V Average,,1.030
same,RPPA p53.R.C Average,,1.157
same,RPPA p70.S6K1.R.V Average,,1.027
same,RPPA p70.S6K_pT389.R.V Average,,0.996
same,RPPA p90RSK_pT573.R.C Average,,1.014
same,RPPA A.Raf.R.V,20W1,1.011
same,RPPA ACC1.R.C,20W1,0.890
same,RPPA ACLY_pS455.R.V,20W1,1.224
same,RPPA ACSL1.R.V,20W1,0.955
same,RPPA ACVRL1.R.C,20W1,0.972
same,RPPA ADAR1.M.V,20W1,1.307
same,RPPA ALKBH5.R.V,20W1,0.885
same,RPPA AMPK.a2_pS345.R.V,20W1,1.081
same,RPPA AMPKa.R.C,20W1,1.032
same,RPPA AMPKa_pT172.R.C,20W1,3.755
same,RPPA AR.R.V,20W1,0.874
same,RPPA ARID1A.R.C,20W1,1.514
same,RPPA ASNS.R.V,20W1,0.742
same,RPPA ATM.R.V,20W1,1.024
same,RPPA ATM_pS1981.R.V,20W1,1.111
same,RPPA ATP5A.M.C,20W1,1.018
same,RPPA ATP5H.R.V,20W1,1.117
same,RPPA ATR.R.V,20W1,1.005
same,RPPA ATRX.R.C,20W1,1.357
same,RPPA ATR_pS428.R.C,20W1,1.054
same,RPPA AceCS1.R.V,20W1,0.907
same,RPPA Akt1.R.V,20W1,0.811
same,RPPA Akt1_pS473.R.V,20W1,1.162
same,RPPA Akt2.R.V,20W1,0.873
same,RPPA Akt.R.V,20W1,0.913
same,RPPA Akt_pS473.R.V,20W1,0.795
same,RPPA Akt_pT308.R.V,20W1,0.845
same,RPPA Ambra1_pS52.R.C,20W1,1.101
same,RPPA Annexin.I.M.V,20W1,0.972
same,RPPA Atg3.R.V,20W1,0.914
same,RPPA Atg4B.R.C,20W1,0.881
same,RPPA Atg5.R.C,20W1,0.779
same,RPPA Atg7.R.V,20W1,0.813
same,RPPA Aurora.A.R.C,20W1,0.656
same,RPPA Aurora.ABC_pT288_pT232_pT198.R.C,20W1,0.959
same,RPPA Aurora.B.R.V,20W1,1.341
same,RPPA Axl.R.V,20W1,0.908
same,RPPA B7.H3.R.C,20W1,0.771
same,RPPA B7.H4.R.C,20W1,1.034
same,RPPA B.Raf.R.C,20W1,0.907
same,RPPA B.Raf_pS445.R.V,20W1,0.934
same,RPPA BAP1.M.V,20W1,0.877
same,RPPA BCL2A1.R.V,20W1,0.987
same,RPPA BMK1.Erk5_pT218_Y220.R.V,20W1,0.909
same,RPPA BRCA1.M.C,20W1,1.231
same,RPPA BRD4.R.V,20W1,1.228
same,RPPA Bad_pS112.R.V,20W1,1.119
same,RPPA Bak.R.C,20W1,1.000
same,RPPA Bax.R.V,20W1,0.927
same,RPPA Bcl2.R.C,20W1,1.064
same,RPPA Bcl.xL.R.V,20W1,1.008
same,RPPA Beclin.R.C,20W1,0.873
same,RPPA BiP.GRP78.M.C,20W1,0.914
same,RPPA Bid.R.C,20W1,0.954
same,RPPA Bim.R.V,20W1,1.054
same,RPPA X4E.BP1.R.V,20W1,1.323
same,RPPA X4E.BP1_pS65.R.V,20W1,0.718
same,RPPA X4E.BP1_pT37_T46.R.V,20W1,0.651
same,RPPA X14.3.3.zeta.R.V,20W1,0.801
same,RPPA X14.3.3βR.V,20W1,1.140
same,RPPA X14.3.3εM.C,20W1,0.864
same,RPPA b.Actin.R.C,20W1,1.078
same,RPPA b.Catenin.R.V,20W1,0.844
same,RPPA b.Catenin_pT41_S45.R.V,20W1,1.120
same,RPPA c.Abl.R.V,20W1,1.161
same,RPPA c.IAP2.R.C,20W1,1.080
same,RPPA A.Raf.R.V,20W3,0.992
same,RPPA A.Raf_pS299.R.C,20W3,0.987
same,RPPA ACC1.R.C,20W3,0.779
same,RPPA ACC_pS79.R.V,20W3,0.983
same,RPPA ACLY_pS455.R.V,20W3,0.970
same,RPPA ACSL1.R.V,20W3,0.853
same,RPPA ACVRL1.R.C,20W3,0.984
same,RPPA ALKBH5.R.V,20W3,0.991
same,RPPA AMPK.a2_pS345.R.V,20W3,1.134
same,RPPA AMPKa.R.C,20W3,1.122
same,RPPA AMPKa_pT172.R.C,20W3,2.117
same,RPPA AR.R.V,20W3,1.261
same,RPPA ARID1A.R.C,20W3,1.115
same,RPPA ASNS.R.V,20W3,1.296
same,RPPA ATM.R.V,20W3,0.991
same,RPPA ATM_pS1981.R.V,20W3,0.989
same,RPPA ATP5A.M.C,20W3,0.955
same,RPPA ATP5H.R.V,20W3,0.967
same,RPPA ATR.R.V,20W3,0.989
same,RPPA ATR_pS428.R.C,20W3,1.254
same,RPPA AceCS1.R.V,20W3,0.994
same,RPPA Akt1.R.V,20W3,1.129
same,RPPA Akt1_pS473.R.V,20W3,1.135
same,RPPA Akt2.R.V,20W3,1.035
same,RPPA Akt2_pS474.R.C,20W3,1.166
same,RPPA Akt.R.V,20W3,0.976
same,RPPA Akt_pS473.R.V,20W3,1.265
same,RPPA Ambra1_pS52.R.C,20W3,0.996
same,RPPA Annexin.I.M.V,20W3,0.990
same,RPPA Annexin.VII.M.V,20W3,0.885
same,RPPA Atg3.R.V,20W3,1.076
same,RPPA Atg4B.R.C,20W3,1.076
same,RPPA Atg5.R.C,20W3,0.960
same,RPPA Aurora.A.R.C,20W3,0.983
same,RPPA Aurora.ABC_pT288_pT232_pT198.R.C,20W3,1.060
same,RPPA Axl.R.V,20W3,1.478
same,RPPA B7.H3.R.C,20W3,1.058
same,RPPA B7.H4.R.C,20W3,1.107
same,RPPA B.Raf_pS445.R.V,20W3,1.167
same,RPPA BAP1.M.V,20W3,0.964
same,RPPA BMK1.Erk5_pT218_Y220.R.V,20W3,0.926
same,RPPA BRCA1.M.C,20W3,0.977
same,RPPA BRD4.R.V,20W3,1.002
same,RPPA Bad_pS112.R.V,20W3,1.163
same,RPPA Bax.R.V,20W3,1.054
same,RPPA Bcl2.R.C,20W3,0.975
same,RPPA Bcl.xL.R.V,20W3,1.190
same,RPPA Beclin.R.C,20W3,0.948
same,RPPA BiP.GRP78.M.C,20W3,1.003
same,RPPA Bid.R.C,20W3,0.943
same,RPPA Bim.R.V,20W3,0.917
same,RPPA X4E.BP1.R.V,20W3,1.550
same,RPPA X4E.BP1_pS65.R.V,20W3,1.024
same,RPPA X4E.BP1_pT37_T46.R.V,20W3,1.034
same,RPPA X14.3.3βR.V,20W3,0.902
same,RPPA X14.3.3εM.C,20W3,0.973
same,RPPA b.Actin.R.C,20W3,0.977
same,RPPA b.Catenin.R.V,20W3,1.021
same,RPPA b.Catenin_pT41_S45.R.V,20W3,1.082
same,RPPA c.Abl.R.V,20W3,1.234
same,RPPA c.Abl_pY412.R.C,20W3,1.114
same,C.Raf.R.C RPPA level,Average,1.061
same,CA9.R.C RPPA level,Average,0.925
same,CD2.M.C RPPA level,Average,0.936
same,CD4.R.V RPPA level,Average,1.006
same,CD5.M.C RPPA level,Average,0.966
same,CD20.R.C RPPA level,Average,1.099
same,CD31.M.V RPPA level,Average,0.988
same,CD38.R.C RPPA level,Average,1.131
same,CD44.R.C RPPA level,Average,0.982
same,CD45.M.V RPPA level,Average,0.957
same,CD49b.M.V RPPA level,Average,0.989
same,CD68.M.C RPPA level,Average,0.999
same,CD74.M.V RPPA level,Average,0.998
same,CD134.R.V RPPA level,Average,0.994
same,CD171.M.V RPPA level,Average,0.762
same,CDK1_pT14.R.C RPPA level,Average,1.056
same,CDK9.R.V RPPA level,Average,0.964
same,CDKN2A.R.C RPPA level,Average,1.024
same,CDT1.R.V RPPA level,Average,0.971
same,CENP.A.R.V RPPA level,Average,1.548
same,CHD1L.R.V RPPA level,Average,0.954
same,CIITA.R.C RPPA level,Average,1.002
same,COG3.R.V RPPA level,Average,1.098
same,CRABP1.R.C RPPA level,Average,1.025
same,CRABP2.R.V RPPA level,Average,0.977
same,CREB_pS133.R.C RPPA level,Average,1.270
same,CSK.R.C RPPA level,Average,0.987
same,Calnexin.R.V RPPA level,Average,0.956
same,Caspase.7.cleaved..R.C RPPA level,Average,0.982
same,Caspase.8.M.Q RPPA level,Average,0.929
